Where only a bound is given, the exact number is not on record here.

What all share (assay type): physicochemical
The nature of data set [1]: in vitro dissolution test using a syringe method (Drug 2). The following applies: for AUC / Drug 2 Concentration: PBS pH 6.5, 2 wt % NaTC/POPC. The procedure:
An 8.0 mg sample of the adsorbate was added to 40 mL phosphate buffered saline (PBS) at pH 6.5 and 290 mOsm/kg, containing 2 wt % sodium taurocholic acid and 1-palmitoyl-2-oleyl-sn-glycero-3-phosphocholine (NaTC/POPC, with a 4/1 weight ratio). The concentration of drug would have been 50 μg/mL, if all of the drug had dissolved. The test solution was stirred at room temperature in a syringe equipped with a Gelman Acrodisc 13 CR 0.45 μm PTFE filter. At each sample time, about 2 mL of the test solution was pushed through the filter and analyzed using UV at a wavelength of 256 nm to determine the concentration of torcetrapib in solution. […] Crystalline torcetrapib alone is shown as a comparison.
Crystalline Drug 2 alone is shown as a comparison. In all cases, a sufficient amount of sample was added so that the concentration of drug would have been 50 μg/mL, if all of the drug had dissolved.

The nature of data set [2]: aqueous solubility of torcetrapib.
Data set [3] is described as follows: in vitro dissolution test using a syringe method (torcetrapib). Conditions: for Torcetrapib Concentration / AUC: PBS pH 6.5, 2 wt % NaTC/POPC. The method, then: An 8.0 mg sample of the adsorbate was added to 40 mL phosphate buffered saline (PBS) at pH 6.5 and 290 mOsm/kg, containing 2 wt % sodium taurocholic acid and 1-palmitoyl-2-oleyl-sn-glycero-3-phosphocholine (NaTC/POPC, with a 4/1 weight ratio). The concentration of drug would have been 50 μg/mL, if all of the drug had dissolved. The test solution was stirred at room temperature in a syringe equipped with a Gelman Acrodisc 13 CR 0.45 μm PTFE filter. At each sample time, about 2 mL of the test solution was pushed through the filter and analyzed using UV at a wavelength of 256 nm to determine the concentration of torcetrapib in solution. Samples were collected at 1, 2, 3, 5, 10, 15, 20, 30, 45, 60, and 90 minutes. Crystalline torcetrapib alone is shown as a comparison.
The dissolution rate constant was obtained by performing a least squares fit of the experimental data using the following equation: […]
In this test, 7.855 mg of the Solid Amorphous Adsorbate 2 was added to 40 mL phosphate buffered saline (PBS) at pH 6.5 and 290 mOsm/kg, containing 2 wt % NaTC/POPC (the concentration of drug would have been 49 μg/mL, if all of the drug had dissolved).

In the case of `CC[C@@H]1C[C@H](N(Cc2cc(C(F)(F)F)cc(C(F)(F)F)c2)C(=O)OC)c2cc(C(F)(F)F)ccc2N1C(=O)OC(C)C` [Drug 2, [2R,4S]4-[(3,5-bis-trifluoromethyl-benzyl)-methoxycarbonyl-amino]-2-ethyl-6-trifluoromethyl-3,4-dihydro-2H-quinoline-1-carboxylic acid isopropyl ester], in data set [1] (Drug 2), the “Dissolution Rate Constant, k” value amounted to 0.005 min⁻¹. In data set [1] (Drug 2, area under the aqueous concentration versus time curve after 90 minutes), this compound gave an AUC90 of 383 µg·min/mL. The AUC in data set [1] (Drug 2, time 0 min) stood at 0 µg·min/mL; in data set [1] (Drug 2, time 0.5 min), 0 µg·min/mL; in data set [1] (Drug 2, time 5 min) it was 2.6 µg·min/mL; in data set [1] (Drug 2, time 15 min), 17 µg·min/mL; in data set [1] (Drug 2, time 45 min), 111 µg·min/mL; in data set [1] (Drug 2, time 90 min), 383 µg·min/mL. This compound also yielded an MDC90 in data set [1] (maximum concentration of Drug 2 in solution during the first 90 minutes) of 7.6 µg/mL. Further, the “Drug 2 Concentration” value in data set [1] (time 0 min) came to 0 µg/mL; in data set [1] (time 0.5 min), 0.1 µg/mL; in data set [1] (time 5 min) it was 1.0 µg/mL; in data set [1] (time 15 min), 1.8 µg/mL; in data set [1] (time 45 min), 4.5 µg/mL; in data set [1] (time 90 min), 7.6 µg/mL.

`CCOC(=O)N1c2ccc(C(F)(F)F)cc2[C@@H](N(Cc2cc(C(F)(F)F)cc(C(F)(F)F)c2)C(=O)OC)C[C@H]1CC` [torcetrapib, [2R,4S]-4-[(3,5-bis-trifluoromethyl-benzyl)-methoxycarbonyl-amino]-2-ethyl-6-trifluoromethyl-3,4-dihydro-2H-quinoline-1-carboxylic acid ethyl ester]: the solubility in data set [2] is < 0.04 µg/mL. In addition, the “MDCmax,90” value in data set [3] (maximum concentration of torcetrapib in solution during the first 90 minutes) is <0.5 µg/mL. Moreover, the “Torcetrapib Concentration” value in data set [3] (time 0 min), in data set [3] (time 1 min), in data set [3] (time 2 min), in data set [3] (time 3 min), in data set [3] (time 5 min) and in data set [3] (time 10 min) was <0.5 µg/mL in each case. The “Torcetrapib Concentration” value in data set [3] (time 15 min), in data set [3] (time 20 min), in data set [3] (time 30 min), in data set [3] (time 45 min), in data set [3] (time 60 min) and in data set [3] (time 90 min) was <0.5 µg/mL throughout. Also, the AUC90 in data set [3] (torcetrapib, area under the aqueous concentration versus time curve after 90 minutes) is <45 min-μg/mL. Besides, in data set [3] (torcetrapib, least squares fit of [D]t=[D]o(1−e^−kt)), the “Dissolution Rate Constant, k” value was <0.0005 min⁻¹. In addition, the area under the curve (AUC) in data set [3] (torcetrapib, time 0 min) is 0 µg·min/mL; in data set [3] (torcetrapib, time 1 min), 0 µg·min/mL; in data set [3] (torcetrapib, time 2 min) it was <1 µg·min/mL; in data set [3] (torcetrapib, time 3 min) it was <1 µg·min/mL; in data set [3] (torcetrapib, time 5 min), <2 µg·min/mL; in data set [3] (torcetrapib, time 10 min), <5 µg·min/mL. Besides, the AUC in data set [3] (torcetrapib, time 15 min) is <7 µg·min/mL; in data set [3] (torcetrapib, time 20 min) it was <10 µg·min/mL; in data set [3] (torcetrapib, time 30 min), <15 µg·min/mL; in data set [3] (torcetrapib, time 45 min), <22 µg·min/mL; in data set [3] (torcetrapib, time 60 min), <30 µg·min/mL; in data set [3] (torcetrapib, time 90 min), <45 µg·min/mL.

These data come from patent US20040132771A1, “Compositions of choleseteryl ester transfer protein inhibitors and HMG-CoA reductase inhibitors” (Pfizer Inc, priority 2002, published 2004).
